In one test the target is T1, lipoxygenase (Rattus norvegicus, UniProt P12527).
T1 construct: the peritoneal cavities were lavaged and the polymorphonuclear leukocytes were recovered; endogenous in cells; host or cells: casein-elicited peritoneal polymorphonuclear leukocytes of Wistar male rats
T1 sequence (P12527 1-673): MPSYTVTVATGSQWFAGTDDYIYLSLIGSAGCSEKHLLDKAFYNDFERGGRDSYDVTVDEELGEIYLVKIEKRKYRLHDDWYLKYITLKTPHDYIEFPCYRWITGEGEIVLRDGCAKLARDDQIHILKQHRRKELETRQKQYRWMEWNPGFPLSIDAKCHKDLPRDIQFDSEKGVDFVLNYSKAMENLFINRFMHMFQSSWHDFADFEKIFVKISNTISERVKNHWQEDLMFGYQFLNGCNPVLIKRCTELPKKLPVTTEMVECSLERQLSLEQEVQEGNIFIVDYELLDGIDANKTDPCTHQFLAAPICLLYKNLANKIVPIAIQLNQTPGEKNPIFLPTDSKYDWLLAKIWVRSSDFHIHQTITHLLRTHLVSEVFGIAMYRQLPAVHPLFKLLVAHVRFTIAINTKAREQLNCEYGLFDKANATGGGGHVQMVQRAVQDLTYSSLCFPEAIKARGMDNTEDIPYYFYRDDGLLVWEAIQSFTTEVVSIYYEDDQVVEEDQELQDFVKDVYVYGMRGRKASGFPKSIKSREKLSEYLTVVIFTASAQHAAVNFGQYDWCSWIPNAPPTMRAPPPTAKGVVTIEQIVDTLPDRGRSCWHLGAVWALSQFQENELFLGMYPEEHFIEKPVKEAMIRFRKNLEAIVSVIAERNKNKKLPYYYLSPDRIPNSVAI
The test can be described thus: Test of lipoxygenase inhibitory action (production of leukotriene B4 in rat polymorphonuclear leukocytes). It counts as cell-based. Conditions: inhibiting the production of leukotriene B4, calcium ionophore A-23187, EIA, read-out: LTBI IC50. How it is done: Using rat polymorphonuclear leukocytes, a test of the lipoxygenase inhibitory activity of the test compounds was determined the amount of production of leukotriene B4.
Wistar male rats (Japan Clea) were intraperitoneally administered with 12% sodium casein. After 16 hours, the peritoneal cavities were lavaged and the polymorphonuclear leukocytes were recovered. The obtained polymorphonuclear leukocytes were suspended in a phosphate buffer (137 mM NaCl, 3 mM KCl, 8 mM Na2HPO4, 2 mM KH2PO4) (2.5 × 10^5 cells/0.4 ml), then the incubation was carried out at 37°C for 10 minutes the test compound (final concentration 10^-5M) was added and then for 5 minutes after a calcium solution (10 mM CaCl2, 0.86% NaCl) 0.1 ml was added, then 1.25 µl of calcium ionophore (20 µM, A-23187) was added and the reaction started. Five minutes after the addition, 250 µl of methanol was added to stop the reaction. After the reaction was stopped, the resultant mixture was centrifuged for 20 minutes (4°C, 3000 rpm), then the amount of leukotriene B4 in the supernatant was measured by the EIA method (Cayman Co. kit).
As the test compound, the above mentioned Compound 1 to Compound 4, Compound 9 to Compound 11, Compound 22 to Compound 26, Compound 28, Compound 29, compound 32, Compound 33, and Compound 40 to Compound 48 were used.

The next test has as its target T2, thromboxane synthase (Homo sapiens, UniProt P24557).
T2 construct: containing human platelet microsomes (50 µg protein/ml) and the test compound; from tissue; host or cells: human platelet microsomes
T2 sequence (P24557 1-533): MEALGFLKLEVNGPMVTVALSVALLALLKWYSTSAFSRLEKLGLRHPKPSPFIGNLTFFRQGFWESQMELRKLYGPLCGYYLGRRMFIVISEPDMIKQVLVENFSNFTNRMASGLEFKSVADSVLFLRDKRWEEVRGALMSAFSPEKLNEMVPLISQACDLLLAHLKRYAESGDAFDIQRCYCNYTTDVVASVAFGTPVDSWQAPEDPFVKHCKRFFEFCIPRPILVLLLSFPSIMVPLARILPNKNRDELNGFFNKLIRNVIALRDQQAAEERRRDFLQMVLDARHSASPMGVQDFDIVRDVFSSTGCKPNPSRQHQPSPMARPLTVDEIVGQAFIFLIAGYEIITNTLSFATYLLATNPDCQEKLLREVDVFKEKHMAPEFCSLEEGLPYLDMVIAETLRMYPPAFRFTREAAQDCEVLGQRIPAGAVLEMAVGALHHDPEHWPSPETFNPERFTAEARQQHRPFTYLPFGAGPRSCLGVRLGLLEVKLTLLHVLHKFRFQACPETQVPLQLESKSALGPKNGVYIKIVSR
The test can be described thus: Test of thromboxane synthase inhibitory action (production of thromboxane B2 in human platelet microsomes). Format: biochemical. Conditions: suppressing production of thromboxane (thromboxane B2), prostaglandin H2, EIA, read-out: TxSI IC50. How it is done: Human platelet microsomes were used and a test of the thromboxane synthase inhibitory activity of the compounds was determined by the amount of production of thromboxane B2 as the thromboxane A2 stable metabdite.
[…] A reaction was initiated to added prostaglandin H2 (100 ng/2 µl), and terminated with 1N hydrocloric acid. Then neutralized by 1M Tris-base, and centrifuged at 3000 rpm for 20 minutes. The content of the thromboxane B2 in the supernatent was measured by the EIA method (Cayman Co. kit).
As the test compound, the same compounds as in Test Example 1 were used.

For the molecule `CC(c1cccc(CC(c2ccccc2)c2cccnc2)c1)N(O)C(N)=O` (stereo not drawn) [Compound 48, N-hydroxy-N-[3-[β-(3-pyridyl)phenethyl]-α-methylbenzyl]urea], the values for the IC50 at lipoxygenase and at thromboxane synthase were 800 nM and 30 nM, respectively.
The corresponding values for `COc1cccc(NC(=O)N(O)CCCC(c2ccccc2)c2cccnc2)c1` (centres unmarked) [Compound 11, N-hydroxy-N'-(3-methoxyphenyl)-N-[4-phenyl-4-(3-pyridyl)butyl]urea] are 500 nM and 2 nM.
The corresponding values for `O=C(NC1CCCCC1)N(O)CCCCC/C=C(/c1ccccc1)c1cccnc1` [Compound 3, N'-cyclohexyl-N-hydroxy-N-[(Z)-7-phenyl-7-(3-pyridyl)-6-hepten-1-yl]urea] are 50 nM and 9 nM.
The corresponding values for `CC(c1cccc(OC(c2ccccc2)c2cccnc2)c1)N(O)C(N)=O` (stereo not drawn) [Compound 46, N-hydroxy-N-[3-[α-(3-pyridyl)benzyloxy]-α-methylbenzyl]urea] are 1000 nM and 9 nM.
Consider `NC(=O)N(O)C/C=C/CCCC(c1ccccc1)c1cccnc1` (centres unmarked) [Compound 40, N-hydroxy-N-[(E)-7-phenyl-7-(3-pyridyl)-2-hepten-1-yl]urea], for which the values for the IC50 at lipoxygenase and at thromboxane synthase were 200 nM and 30 nM, respectively.
The corresponding values for `O=C(NC1CCCCC1)N(O)Cc1cccc(OC(c2ccccc2)c2cccnc2)c1` (stereo not drawn) [Compound 44, N'-cyclohexyl-N-hydroxy-N-[3-[α-(3-pyridyl)benzyloxy]benzyl]urea] are 200 nM and 5 nM.
Consider `NC(=O)N(O)Cc1cccc(CC(c2ccccc2)c2cccnc2)c1` (stereo not drawn) [Compound 47, N-hydroxy-N-[3-[β-(3-pyridyl)phenethyl]benzyl]urea], for which the 50% inhibitory concentration (IC50) (usually the concentration needed to halve the response being measured) on lipoxygenase was 300 nM; at thromboxane synthase it was 20 nM.
The corresponding values for `NC(=O)N(O)CCCCC/C=C(\c1ccccc1)c1cccnc1` [Compound 1, N-hydroxy-N-[(E)-7-phenyl-7-(3-pyridyl)-6-hepten-1-yl]urea] are 400 nM and 0.9 nM.
The corresponding values for `ON(CCCC(c1ccccc1)c1cccnc1)C(=S)NC1CCCCC1` (centres unmarked) [Compound 10, N'-cyclohexyl-N-hydroxy-N-[4-phenyl-4-(3-pyridyl)butyl]thiourea] are 300 nM and 0.9 nM.
`NC(=O)N(O)CCC=C(c1cccnc1)c1cccc(C(F)(F)F)c1` [Compound 4, N-hydroxy-N-[4-(3-pyridyl)-4-(3-trifluoromethylphenyl)-3-buten-1-yl] urea]: the IC50 at lipoxygenase was 2000 nM; on thromboxane synthase, 6 nM.
Regarding `COc1cccc(NC(=O)N(O)CCCCCCC(c2ccccc2)c2cccnc2)c1` (centres unmarked) [Compound 26, N-hydroxy-N'-(3-methoxyphenyl)-N-[7-phenyl-7-(3-pyridyl)heptyl]urea], the figures for the IC50 on lipoxygenase and on thromboxane synthase were 40 nM and 2 nM, respectively.
For the molecule `NC(=O)N(O)Cc1cccc(OC(c2ccccc2)c2cccnc2)c1` (stereo not drawn) [Compound 42, N-hydroxy-N-[3-[α-(3-pyridyl)benzyloxy]benzyl]urea], the IC50 at lipoxygenase is 300 nM; on thromboxane synthase, 60 nM.
The corresponding values for `COc1cccc(NC(=O)N(O)Cc2cccc(OC(c3ccccc3)c3cccnc3)c2)c1` (stereo not drawn) [Compound 45, N-hydroxy-N'-(3-methoxyphenyl)-N-[3-[α-(3-pyridyl)benzyloxy]benzyl] urea] are 90 nM and 6 nM.
Turning to `CC(/C=C/CCCC(c1ccccc1)c1cccnc1)N(O)C(N)=O` (centres unmarked) [Compound 41, N-hydroxy-N-[(E)-1-methyl-7-phenyl-7-(3-pyridyl)-2-hepten-1-yl]urea], the IC50 worked out at 200 nM on lipoxygenase and 5 nM at thromboxane synthase.
The corresponding values for `O=C(NC1CCCCC1)N(O)CCCCCCC(c1ccccc1)c1cccnc1` (centres unmarked) [Compound 25, N'-cyclohexyl-N-hydroxy-N-[7-phenyl-7-(3-pyridyl)heptyl]urea] are 60 nM and 5 nM.
The corresponding values for `NC(=S)N(O)CCCCCC(c1ccccc1)c1cccnc1` (centres unmarked) [Compound 22, N-hydroxy-N-[6-phenyl-6-(3-pyridyl)hexyl]thiourea] are 200 nM and 4 nM.
The corresponding values for `NC(=O)N(O)CCCCCCCCCC(c1ccccc1)c1cccnc1` (centres unmarked) [Compound 33, N-hydroxy-N-[10-phenyl-10-(3-pyridyl)decyl]urea] are 10 nM and 10 nM.
`O=C(NC1CCCCC1)N(O)CCCC(c1ccccc1)c1cccnc1` (centres unmarked) [Compound 9, N'-cyclohexyl-N-hydroxy-N-[4-phenyl-4-(3-pyridyl)butyl]urea]: the IC50 was determined as 1000 nM on lipoxygenase and 0.3 nM on thromboxane synthase.
As to `CCNC(=O)N(O)CCCCCC(c1ccccc1)c1cccnc1` (centres unmarked) [Compound 23, N'-ethyl-N-hydroxy-N-[6-phenyl-6-(3-pyridyl)hexyl]urea], the IC50 stood at 200 nM at lipoxygenase and 6 nM on thromboxane synthase.
The corresponding values for `NC(=O)N(O)CCCCCCC(c1ccccc1)c1cccnc1` (centres unmarked) [Compound 24, N-hydroxy-N-[7-phenyl-7-(3-pyridyl)heptyl]urea] are 80 nM and 10 nM.
The corresponding values for `NC(=O)N(O)CCCCC/C=C(/c1ccccc1)c1cccnc1` [Compound 2, N-hydroxy-N-[(Z)-7-phenyl-7-(3-pyridyl)-6-hepten-1-yl]urea] are 60 nM and 20 nM.
The corresponding values for `ON(CCCCCCCC(c1ccccc1)c1cccnc1)C(=S)Nc1ccccc1` (centres unmarked) [Compound 29, N-hydroxy-N'-phenyl-N-[8-phenyl-8-(3-pyridyl)octyl]thiourea] are 40 nM and 2 nM.
`NC(=O)N(O)Cc1ccc(OC(c2ccccc2)c2cccnc2)cc1` (stereo not drawn) [Compound 43, N-hydroxy-N-[4-[α-(3-pyridyl)benzyloxy]benzyl]urea]: the IC50 on lipoxygenase amounted to 500 nM; on thromboxane synthase it was 50 nM.
The corresponding values for `CC(CCCCCC(c1ccccc1)c1cccnc1)N(O)C(N)=O` (centres unmarked) [Compound 28, N-hydroxy-N-[1-methyl-7-phenyl-7-(3-pyridyl)heptyl]urea] are 100 nM and 7 nM.
In the case of `CC(CCCCCCCC(c1ccccc1)c1cccnc1)N(O)C(=S)NC1CCCCC1` (centres unmarked) [Compound 32, N'-cyclohexyl-N-hydroxy-N-[1-methyl-9-phenyl-9-(3-pyridyl)nonyl]thiourea], the figures for the IC50 at lipoxygenase and on thromboxane synthase were 100 nM and 9 nM, respectively.

(Values after EP0807626A1, “N-HYDROXYUREA DERIVATIVES” (Nikken Chemicals Company, Limited, priority 1995, dated 1996).)
